Assay results from the NIST ThermoML archive (doi:10.1021/je900596d).

Conditions: for mass density: Vibrating tube method; for vapor or sublimation pressure: Closed cell (Static) method

FC(F)=C(F)C(F)(F)F [hexafluoropropene]
Conditions | mass density [kg/m3]
303.36 K, 1884.5 kPa, Liquid | 1299.72
303.36 K, 1906.2 kPa, Liquid | 1300.05
303.36 K, 1950 kPa, Liquid | 1300.59
303.36 K, 1985.6 kPa, Liquid | 1301.03
303.36 K, 2016.6 kPa, Liquid | 1301.15
303.36 K, 2051.2 kPa, Liquid | 1301.63
303.36 K, 2084.4 kPa, Liquid | 1301.95
303.36 K, 2119.1 kPa, Liquid | 1302.35
303.36 K, 2170.3 kPa, Liquid | 1302.96
303.36 K, 2204.1 kPa, Liquid | 1303.24
303.36 K, 2239.2 kPa, Liquid | 1303.63
303.36 K, 2326 kPa, Liquid | 1304.46
303.36 K, 2359.9 kPa, Liquid | 1304.86
303.36 K, 2392.6 kPa, Liquid | 1305.27
303.36 K, 2427 kPa, Liquid | 1305.54
303.36 K, 2445.1 kPa, Liquid | 1305.96
303.36 K, 2496.7 kPa, Liquid | 1306.19
303.36 K, 2513.8 kPa, Liquid | 1306.54
303.36 K, 2546.9 kPa, Liquid | 1306.82
303.36 K, 2585.2 kPa, Liquid | 1307.14
303.36 K, 2621.3 kPa, Liquid | 1307.6
303.36 K, 2688.6 kPa, Liquid | 1308.11
303.36 K, 2773.2 kPa, Liquid | 1309.07
303.36 K, 2808 kPa, Liquid | 1309.41
303.36 K, 2842.3 kPa, Liquid | 1309.71
303.36 K, 2874.3 kPa, Liquid | 1310.03
303.36 K, 2907.2 kPa, Liquid | 1310.3
303.36 K, 2940.3 kPa, Liquid | 1310.77
303.36 K, 3022.9 kPa, Liquid | 1311.53
303.36 K, 3048.7 kPa, Liquid | 1311.84
303.36 K, 3100.9 kPa, Liquid | 1312.32
303.36 K, 3125.6 kPa, Liquid | 1312.63
303.36 K, 3150.3 kPa, Liquid | 1312.98
303.36 K, 3176.4 kPa, Liquid | 1313.02
303.36 K, 3201.4 kPa, Liquid | 1313.32
303.36 K, 3226.8 kPa, Liquid | 1313.58
303.36 K, 3276.7 kPa, Liquid | 1313.98
303.36 K, 3325.1 kPa, Liquid | 1314.49
303.36 K, 3349.9 kPa, Liquid | 1314.75
303.36 K, 3375.9 kPa, Liquid | 1314.91
303.36 K, 3401.4 kPa, Liquid | 1315.17
303.36 K, 3428.7 kPa, Liquid | 1315.55
303.36 K, 3457.9 kPa, Liquid | 1315.79
303.36 K, 3482.4 kPa, Liquid | 1315.97
303.36 K, 3532.9 kPa, Liquid | 1316.48
303.36 K, 3636.8 kPa, Liquid | 1317.48
303.36 K, 3692 kPa, Liquid | 1318.07
303.36 K, 3744.5 kPa, Liquid | 1318.56
303.36 K, 3799.6 kPa, Liquid | 1319.05
303.36 K, 3852.6 kPa, Liquid | 1319.41
303.36 K, 3906.9 kPa, Liquid | 1319.99
303.36 K, 3959.3 kPa, Liquid | 1320.51
303.36 K, 4068.1 kPa, Liquid | 1321.53
303.36 K, 4117.4 kPa, Liquid | 1322.06
303.36 K, 4226.8 kPa, Liquid | 1323.01
303.36 K, 4279 kPa, Liquid | 1323.53
303.36 K, 4384.9 kPa, Liquid | 1324.43
303.36 K, 4442 kPa, Liquid | 1324.86
303.36 K, 4491.1 kPa, Liquid | 1325.26
303.36 K, 4545.1 kPa, Liquid | 1325.86
303.36 K, 4652.9 kPa, Liquid | 1326.85
303.36 K, 4706.2 kPa, Liquid | 1327.25
303.36 K, 4761.9 kPa, Liquid | 1327.67
303.36 K, 4810.6 kPa, Liquid | 1328.19
303.36 K, 4861.8 kPa, Liquid | 1328.62
303.36 K, 4913.7 kPa, Liquid | 1329.12
303.36 K, 4970 kPa, Liquid | 1329.46
303.36 K, 5017 kPa, Liquid | 1329.84
303.36 K, 5088.1 kPa, Liquid | 1330.55
303.36 K, 5216.5 kPa, Liquid | 1331.6
303.36 K, 5343.2 kPa, Liquid | 1332.68
303.36 K, 5408.2 kPa, Liquid | 1333.2
303.36 K, 5478.7 kPa, Liquid | 1333.8
303.36 K, 5540.7 kPa, Liquid | 1334.24
303.36 K, 5605.9 kPa, Liquid | 1334.94
303.36 K, 5666.1 kPa, Liquid | 1335.34
303.36 K, 5731.3 kPa, Liquid | 1335.77
303.36 K, 5921.6 kPa, Liquid | 1337.37
303.36 K, 5981.8 kPa, Liquid | 1337.85
303.36 K, 6042.7 kPa, Liquid | 1338.34
303.36 K, 6104.9 kPa, Liquid | 1338.9
303.36 K, 6169.9 kPa, Liquid | 1339.47
303.36 K, 6232.2 kPa, Liquid | 1339.84
303.36 K, 6297.1 kPa, Liquid | 1340.49
303.36 K, 6362 kPa, Liquid | 1340.92
303.36 K, 6487 kPa, Liquid | 1341.93
303.36 K, 6549.6 kPa, Liquid | 1342.5
303.36 K, 6613.9 kPa, Liquid | 1342.92
303.36 K, 6678.1 kPa, Liquid | 1343.42
303.36 K, 6742 kPa, Liquid | 1343.99
303.36 K, 6802.7 kPa, Liquid | 1344.44
303.36 K, 6864.7 kPa, Liquid | 1344.88
303.36 K, 6928 kPa, Liquid | 1345.36
303.36 K, 7053.8 kPa, Liquid | 1346.25
303.36 K, 7120.4 kPa, Liquid | 1346.76
303.36 K, 7184.3 kPa, Liquid | 1347.25
303.36 K, 7245.2 kPa, Liquid | 1347.73
303.36 K, 7308.5 kPa, Liquid | 1348.26
303.36 K, 7370.8 kPa, Liquid | 1348.64
303.36 K, 7436.1 kPa, Liquid | 1349.17
303.36 K, 7499.7 kPa, Liquid | 1349.66
303.36 K, 7563.6 kPa, Liquid | 1350.15
303.36 K, 7689.6 kPa, Liquid | 1351.05
303.36 K, 7751.3 kPa, Liquid | 1351.45
303.36 K, 7812.7 kPa, Liquid | 1351.9
303.36 K, 7879.7 kPa, Liquid | 1352.39
303.36 K, 7943 kPa, Liquid | 1352.95
303.36 K, 8005.8 kPa, Liquid | 1353.4
303.36 K, 8100.6 kPa, Liquid | 1353.99
303.36 K, 8290.6 kPa, Liquid | 1355.42
303.36 K, 8481.2 kPa, Liquid | 1356.76
303.36 K, 8578.2 kPa, Liquid | 1357.54
303.36 K, 8675.5 kPa, Liquid | 1358.15
303.36 K, 8768.5 kPa, Liquid | 1358.79
303.36 K, 8868.4 kPa, Liquid | 1359.47
303.36 K, 8967.8 kPa, Liquid | 1360.24
303.36 K, 9068.6 kPa, Liquid | 1360.85
303.36 K, 9168.1 kPa, Liquid | 1361.57
303.36 K, 9265.9 kPa, Liquid | 1362.22
303.36 K, 9367 kPa, Liquid | 1362.91
303.36 K, 9568.1 kPa, Liquid | 1364.22
303.36 K, 9667.3 kPa, Liquid | 1364.9
303.36 K, 9768.6 kPa, Liquid | 1365.55
303.36 K, 9865.8 kPa, Liquid | 1366.04
303.36 K, 9961.4 kPa, Liquid | 1366.81
303.36 K, 9992.6 kPa, Liquid | 1366.98
323.21 K, 7 kPa, Fluid (supercritical or subcritical phases) | 0.29
323.21 K, 10.8 kPa, Fluid (supercritical or subcritical phases) | 0.58
323.21 K, 14.3 kPa, Fluid (supercritical or subcritical phases) | 0.86

Liquid
Conditions | vapor or sublimation pressure [kPa]
308.21 K | 963.4
313.21 K | 1099.9
318.22 K | 1250.6
323.2 K | 1413.5
